# Measurements: patent US7812022B2 (GlaxoSmithKline LLC, priority 2004, dated 2010)
# pIC50: −log10 of the molar value.
# How the values were obtained:
# [1] = molecular target: T1, ErbB2 or EGFR; test: ErbB family substrate phosphorylation enzyme assay (HTRF), Method A or Method B; format: biochemical; settings: Method B: enzyme mix pre-incubated with compound 1 hour at 20° C., started with substrate mix
# T1 construct: enzymes purified from a baculovirus expression system; Reagent production was conducted essentially as described in Brignola, P. S., et al, (2002) J. Biol. Chem. 277(2): 1576-1585
# Outline: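 Baculovirus-expressed EGFR or ErbB2 (0.8 or 10 nM in enzyme mix) phosphorylates biotinylated Peptide C with 20 µM ATP and 0.8 µM peptide (substrate-mix levels), MnCl2, pH 7.5. Reaction ran 90 min at 20 °C with EDTA stop and HTRF anti-phosphotyrosine read. Method A: enzyme added last; Method B: 1 h enzyme–compound preincubation.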
# [2] = tested on: BT474 and HN5 tumor cell lines; test: Celltiter Glo growth inhibition assay (cellular Method B); format: cell-based; settings: Homo sapiens, BT-474, 72 h, 3 days, read-out: Activity (Method): growth inhibition IC50 class
# Protocol: (§1) Human breast tumor cells (BT474) were cultured in RPMI, (Invitrogen, 22400) containing 10% fetal bovine serum (FBS). Human head and neck tumor cells (HN5) were cultured in low glucose DMEM (Invitrogen, 12320) containing 10% FBS. Human colon tumor cells (Colo205) were cultured in DMEM (Invitrogen, 10564) containing 10% FBS. All cell lines were maintained at 37° C. in a humidified 5% CO2, 95% air incubator. Cells were harvested using trypsin/EDTA, counted using a haemocytometer, and plated in 30 microliters of the appropriate media described above, at the following densities, in a half area, black-walled, 96-well tissue culture plate (Corning 3882): BT474 3,000 cells/well, HN5 500 cells/well and Colo205 cells, 3,000 cells/well. The next day, compounds were diluted in DMEM containing […] gentamicin, from 10 mM stock solutions in DMSO. 30 microliters/well of these dilutions were added to the 30 microliters/well of media currently on the cell plates. Medium containing 0.6% DMSO was added to control wells. The final concentration of DMSO in all wells was 0.3%. Cells were incubated at 37° C., 5% CO2 for 3 days. Cell biomass was estimated using Celltiter Glo (Promega G7571). Briefly, plates were removed from the incubator and allowed to equilibrate to rt for 30 minutes. 60 microliters of Celltiter Glo reagent were added to each well of the treated cells and plates were shaken on an orbital plate shaker for 2 min. Plates were incubated without shaking for 30 more min and read in a luminometer with an integration time of 0.5 seconds per well. Percent inhibition of cell growth was calculated relative to vehicle treated control wells. Concentration of compound that inhibits 50% of vehicle control cell growth (IC50) was interpolated using nonlinear regression (Levenberg-Marquardt) and the equation, y=Vmax*(1−(x/(K+x)))+Y2, where “K” was equal to the IC50.
# [3] = tested on: Colo205 tumor cell lines; test: Celltiter Glo growth inhibition assay (cellular Method B), Colo205; format: cell-based; settings: Homo sapiens, COLO 205, 72 h, 3 days, read-out: Activity (Method): growth inhibition IC50 class
# Protocol: as §1
SMILES,Activity (Method): pIC50 class against ErbB2 or EGFR [1],pIC50 [2],pIC50 [3]
"CN(C)c1cccc2c(-c3ccnc(Nc4cccc(F)c4)n3)c(-c3cccc(NC(=O)c4c(F)cccc4F)c3)nn12.O=C(O)C(F)(F)F [Example 175, N-[3-(7-(Dimethylamino)-3-{2-[(3-fluorophenyl)amino]-4-pyrimidinyl}pyrazolo[1,5-a]pyridin-2-yl)phenyl]-2,6-difluorobenzamide trifluoroacetate]",+++ (B) (at least one pIC50 measurement of greater than 7 against either ErbB2 or EGFR),6.00 to 7.00,< 6.00
"NCc1cccc(Nc2nccc(-c3c(-c4cccc(NC(=O)c5c(F)cccc5F)c4)nn4ccccc34)n2)c1 [Example 180, N-{3-[3-(2-{[3-(Aminomethyl)phenyl]amino}-4-pyrimidinyl)pyrazolo[1,5-a]pyridin-2-yl]phenyl}-2,6-difluorobenzamide]",+++ (B) (at least one pIC50 measurement of greater than 7 against either ErbB2 or EGFR),> 7.00,< 6.00
"CN(C)C1Cc2ccc(Nc3nccc(-c4c(-c5ccc(F)c(NC(=O)c6c(F)cccc6F)c5)nn5ccccc45)n3)cc2C1.O=C(O)C(F)(F)F (stereo not drawn) [Example 181, N-{5-[3-(2-{[2-(Dimethylamino)-2,3-dihydro-1H-inden-5-yl]amino}-4-pyrimidinyl)pyrazolo[1,5-a]pyridin-2-yl]-2-fluorophenyl}-2,6-difluorobenzamide]",+++ (B) (at least one pIC50 measurement of greater than 7 against either ErbB2 or EGFR),> 7.00,6.00 to 7.00
"CN(C)CCOc1cccc(Nc2nccc(-c3c(-c4ccc(F)c(NC(=O)c5c(F)cccc5F)c4)nn4ccccc34)n2)c1 [Example 182, N-[5-(3-{2-[(3-{[2-(Dimethylamino)ethyl]oxy}phenyl)amino]-4-pyrimidinyl}pyrazolo[1,5-a]pyridin-2-yl)-2-fluorophenyl]-2,6-difluorobenzamide]",+++ (B) (at least one pIC50 measurement of greater than 7 against either ErbB2 or EGFR),> 7.00,6.00 to 7.00
"CNCc1cccc(Nc2nccc(-c3c(-c4cccc(NC(=O)c5c(F)cccc5F)c4)nn4ccccc34)n2)c1 [Example 183, 2,6-Difluoro-N-(3-{3-[2-({3-[(methylamino)methyl]phenyl}amino)-4-pyrimidinyl]pyrazolo[1,5-a]pyridin-2-yl}phenyl)benzamide]",+++ (B) (at least one pIC50 measurement of greater than 7 against either ErbB2 or EGFR),> 7.00,< 6.00
"NCc1cccc(Nc2nccc(-c3c(-c4cccc(NC(=O)c5cc(F)ccc5F)c4)nn4ccccc34)n2)c1 [Example 184, N-{3-[3-(2-{[3-(Aminomethyl)phenyl]amino}-4-pyrimidinyl)pyrazolo[1,5-a]pyridin-2-yl]phenyl}-2,5-difluorobenzamide]",+++ B) (at least one pIC50 measurement of greater than 7 against either ErbB2 or EGFR),> 7.00,< 6.00
"CN(C)CCNCc1cccc(Nc2nccc(-c3c(-c4cccc(NC(=O)c5c(F)cccc5F)c4)nn4ccccc34)n2)c1 [Example 185, N-{3-[3-(2-{[3-({[2-(Dimethylamino)ethyl]amino}methyl)phenyl]-amino}-4-pyrimidinyl)pyrazolo[1,5-a]pyridin-2-yl]phenyl}-2,6-difluorobenzamide]",+++ (B) (at least one pIC50 measurement of greater than 7 against either ErbB2 or EGFR),> 7.00,< 6.00
"Cc1ccc(F)c(C(=O)Nc2cccc(-c3nn4ccccc4c3-c3ccnc(Nc4ccc(OCCN(C)C)c(Cl)c4)n3)c2)c1F.O=C(O)C(F)(F)F [Example 186, N-[3-(3-{2-[(3-chloro-4-{[2-(dimethylamino)ethyl]oxy}phenyl)-amino]-4-pyrimidinyl}pyrazolo[1,5-a]pyridin-2-yl)phenyl]-2,6-difluoro-3-methylbenzamide-TFA]",+++ (B) (at least one pIC50 measurement of greater than 7 against either ErbB2 or EGFR),> 7.00,< 6.00
"CS(=O)(=O)CCNCc1cccc(Nc2nccc(-c3c(-c4cccc(NC(=O)c5cc(F)ccc5F)c4)nn4ccccc34)n2)c1 [Example 187, 2,5-Difluoro-N-{3-[3-(2-{[3-({[2-(methylsulfonyl)ethyl]amino}-methyl)phenyl]amino}-4-pyrimidinyl)pyrazolo[1,5-a]pyridin-2-yl]phenyl}benzamide]",+++ (B) (at least one pIC50 measurement of greater than 7 against either ErbB2 or EGFR),> 7.00,6.00 to 7.00
"CS(=O)(=O)CCNCc1cccc(Nc2nccc(-c3c(-c4cccc(NC(=O)c5c(F)cccc5F)c4)nn4ccccc34)n2)c1 [Example 188, 2,6-Difluoro-N-{3-[3-(2-{[3-({[2-(methylsulfonyl)ethyl]amino}-methyl)phenyl]amino}-4-pyrimidinyl)pyrazolo[1,5-a]pyridin-2-yl]phenyl}benzamide]",+++ (B) (at least one pIC50 measurement of greater than 7 against either ErbB2 or EGFR),> 7.00,< 6.00
"O=C(Nc1cccc(-c2nn3cc(C(F)(F)F)ccc3c2-c2ccnc(Nc3cccc(F)c3)n2)c1)c1c(F)cccc1F [Example 191, 2,6-Difluoro-N-{3-[3-{2-[(3-fluorophenyl)amino]-4-pyrimidinyl}-6-(trifluoromethyl)pyrazolo[1,5-a]pyridin-2-yl]phenyl}benzamide]",++ (B) (at least one pIC50 measurement greater than 6 against either ErbB2 or EGFR but no measurement greater than pIC50 of 7),< 6.00,< 6.00
"O=C(Nc1cccc(-c2nn3cc(C(F)(F)F)ccc3c2-c2nc(Nc3cccc(F)c3)ncc2F)c1)c1c(F)cccc1F [Example 193, 2,6-Difluoro-N-{3-[3-{5-fluoro-2-[(3-fluorophenyl)amino]-4-pyrimidinyl}-6-(trifluoromethyl)pyrazolo[1,5-a]pyridin-2-yl]phenyl}benzamide]",+ (B) (no pIC50 measurement greater than 6 against either ErbB2 or EGFR),< 6.00,< 6.00
"CN(C)CCOc1cccc(Nc2nccc(-c3c(-c4cccc(NC(=O)c5c(F)cccc5F)c4)nn4cc(C(F)(F)F)ccc34)n2)c1 [Example 194, N-{3-[3-{2-[(3-{[2-(Dimethylamino)ethyl]oxy}phenyl)amino]-4-pyrimidinyl}-6-(trifluoromethyl)pyrazolo[1,5-a]pyridin-2-yl]phenyl}-2,6-difluorobenzamide]",+++ (B) (at least one pIC50 measurement of greater than 7 against either ErbB2 or EGFR),6.00 to 7.00,< 6.00
"O=C(Nc1cccc(-c2nn3ccccc3c2-c2nc(Nc3cccc(F)c3)ncc2F)c1)c1c(F)cccc1F [Example 202, 2,6-difluoro-N-[3-(3-{5-fluoro-2-[(3-fluorophenyl)amino]-4-pyrimidinyl}pyrazolo[1,5-a]pyridin-2-yl)phenyl]benzamide]",++ (B) (at least one pIC50 measurement greater than 6 against either ErbB2 or EGFR but no measurement greater than pIC50 of 7),6.00 to 7.00,< 6.00
"CN1CCc2ccc(Nc3ncc(F)c(-c4c(-c5cccc(NC(=O)c6c(F)cccc6F)c5)nn5ccccc45)n3)cc2C1 [Example 203, 2,6-Difluoro-N-[3-(3-{5-fluoro-2-[(2-methyl-1,2,3,4-tetrahydro-7-isoquinolinyl)amino]-4-pyrimidinyl}pyrazolo[1,5-a]pyridin-2-yl)phenyl]benzamide]",+++ (B) (at least one pIC50 measurement of greater than 7 against either ErbB2 or EGFR),> 7.00,6.00 to 7.00
